Data set [1] addresses T1, Peroxisome proliferator-activated receptor gamma (Homo sapiens, UniProt P37231).
T1 sequence (P37231 whole entry): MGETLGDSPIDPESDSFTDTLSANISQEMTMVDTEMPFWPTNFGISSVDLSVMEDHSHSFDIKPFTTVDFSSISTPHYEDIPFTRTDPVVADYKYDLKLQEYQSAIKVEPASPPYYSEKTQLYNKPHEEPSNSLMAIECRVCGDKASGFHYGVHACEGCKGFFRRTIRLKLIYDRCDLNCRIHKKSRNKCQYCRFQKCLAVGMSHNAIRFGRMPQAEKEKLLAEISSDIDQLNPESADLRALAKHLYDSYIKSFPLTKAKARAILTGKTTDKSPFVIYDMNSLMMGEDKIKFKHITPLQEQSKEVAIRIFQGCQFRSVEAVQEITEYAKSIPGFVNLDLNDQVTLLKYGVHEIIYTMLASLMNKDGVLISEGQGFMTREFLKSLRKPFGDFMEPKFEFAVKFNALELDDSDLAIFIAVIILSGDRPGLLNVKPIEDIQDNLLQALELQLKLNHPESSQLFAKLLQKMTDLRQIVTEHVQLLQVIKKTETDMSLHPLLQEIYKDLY

Data set [2] deals with T2, Peroxisome proliferator-activated receptor delta (Homo sapiens, UniProt Q03181).
T2 sequence (Q03181 whole entry): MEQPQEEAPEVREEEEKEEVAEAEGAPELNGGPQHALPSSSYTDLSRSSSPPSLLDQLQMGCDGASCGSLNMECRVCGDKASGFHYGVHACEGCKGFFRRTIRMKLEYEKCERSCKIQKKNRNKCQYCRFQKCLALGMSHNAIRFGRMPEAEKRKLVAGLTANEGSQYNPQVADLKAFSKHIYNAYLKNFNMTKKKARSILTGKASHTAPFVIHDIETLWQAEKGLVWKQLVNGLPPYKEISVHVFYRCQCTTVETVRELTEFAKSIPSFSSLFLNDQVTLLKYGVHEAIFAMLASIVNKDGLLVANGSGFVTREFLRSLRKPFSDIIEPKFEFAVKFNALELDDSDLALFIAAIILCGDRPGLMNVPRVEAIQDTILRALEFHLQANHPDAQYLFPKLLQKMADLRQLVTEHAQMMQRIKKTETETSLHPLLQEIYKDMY

For data set [3], the target named is T3, Peroxisome proliferator-activated receptor alpha (Homo sapiens, UniProt Q07869).
T3 sequence (Q07869 whole entry): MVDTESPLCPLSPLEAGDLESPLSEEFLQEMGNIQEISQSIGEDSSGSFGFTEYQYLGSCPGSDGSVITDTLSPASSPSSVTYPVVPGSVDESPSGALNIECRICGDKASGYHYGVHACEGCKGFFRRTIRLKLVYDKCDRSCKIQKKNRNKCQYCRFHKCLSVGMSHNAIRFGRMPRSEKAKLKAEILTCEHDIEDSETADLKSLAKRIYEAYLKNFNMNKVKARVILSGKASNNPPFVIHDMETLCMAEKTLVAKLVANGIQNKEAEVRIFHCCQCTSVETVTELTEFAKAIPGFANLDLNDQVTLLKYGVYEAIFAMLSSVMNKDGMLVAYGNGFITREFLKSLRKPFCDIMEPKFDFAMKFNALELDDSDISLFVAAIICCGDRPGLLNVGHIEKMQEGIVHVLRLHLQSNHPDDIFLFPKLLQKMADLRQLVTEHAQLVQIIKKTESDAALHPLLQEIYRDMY
The experiment in a line: Binding affinity against Peroxisome Proliferator activated receptor alpha (PPAR alpha); Not active.

Data set [4] has as its target T4, Peroxisome proliferator-activated receptor gamma (Homo sapiens) (UniProt P37231).
T4 sequence (whole entry): T1 sequence (P37231 whole entry)
The data set can be described thus: Transcriptional activation of peroxisome proliferator activated receptor gamma activity; Inactive at 10e-4 M. The format is functional.

Data set [5] deals with T1, Peroxisome proliferator-activated receptor gamma. The source holds these as a separate data set.
For data set [6], the target named is T4, Peroxisome proliferator-activated receptor gamma (Homo sapiens). The experiment in a line: Binding affinity against Peroxisome proliferator activated receptor gamma (PPAR gamma); Inactive at 10e-4 M.
The nature of data set [7]: Pharmacokinetic property (oral bioavailability) in rat (dose given as a suspension). The format is ADME, organism-based. Particulars: in vivo.
Data set [8] can be described thus: Pharmacokinetic property (oral bioavailability) in rat (dose given as a solution). The format is ADME, organism-based. The settings on record: in vivo.
The nature of data set [9]: Pharmacokinetic property (half life) in rat. The format is ADME, organism-based. The settings on record: in vivo.
For data set [10], the target named is T1, Peroxisome proliferator-activated receptor gamma. The data set can be described thus: Inhibitory concentration of the PPAR gamma).
A short description of data set [11]: Pharmacokinetic property (total body clearance) in rat. The data set is classed as ADME, organism-based. The settings on record: in vivo, read-out: CLtotal.
Data set [12] concerns the target T1, Peroxisome proliferator-activated receptor gamma. The experiment in a line: Binding affinity against human Peroxisome proliferator activated receptor gamma (PPAR gamma).

Each structure is given as a SMILES string. The source made the active and inactive calls. The calls are words filed in the database; no cut-off is given here.

The term EC50 denotes the midpoint of the concentration-response curve. A high value points to a need for much substance. A word on the Ki: it is a dissociation constant, usually derived from enzyme kinetics or from competition with a known ligand. `O=C(O)Cc1ccc2[nH]c(-c3ccccc3)c(CCc3ccccc3)c2c1` gave a 50% effective concentration (EC50) in [1] of 309 nM. Further, the inhibition constant Ki entry in [2] and in [3] was “Not Active” throughout.

For the molecule `Cc1c(C)c2c(c(C)c1O)CCC(C)(COc1ccc(CC3SC(=O)NC3=O)cc1)O2` (stereo unspecified) [TROGLITAZONE], the Ki result in data set [2] and in data set [3] was “Not Active” each time.

For the molecule `O=C(O)Cc1ccc2[nH]c(-c3ccccc3)cc2c1`, the “Log EC50” value in [4] was “inactive”. The inhibition constant (Ki) entry in data set [2] and in data set [3] was “Not Active” throughout.

`CN(CCOc1ccc(CC2SC(=O)NC2=O)cc1)c1ccccn1` (stereo unspecified) [ROSIGLITAZONE]: in [3], the Ki entry is recorded as “Not Active”.

Take `CCCc1c(-c2ccccc2)[nH]c2ccc(C(=O)O)cc12`: in data set [1], the EC50 was over 10000 nM. The Ki entry in [2] and in [3] was “Not Active” in each case.

For the molecule `O=C(O)CCc1ccc2[nH]c(-c3ccccc3)c(CCc3ccccc3)c2c1`, it took 3020 nM to reach a half-maximal effect in data set [1] (EC50). Also, the inhibition constant (Ki) result in data set [2] and in data set [3] was “Not Active” throughout.

Regarding `Cn1c(-c2ccccc2)c(CCc2ccccc2)c2cc(OCC(=O)O)ccc21`, in [1], the EC50 is over 10000 nM. Also, the inhibition constant (Ki) result in [2] and in data set [3] was “Not Active” throughout.

Consider `Cn1c(-c2ccccc2)c(CCc2ccccc2)c2cc(CC(=O)O)ccc21`, for which the Ki is 550 nM in [5], “Not Active” in data set [2] and “Not Active” in [3]. In data set [1], this molecule showed an EC50 of 5620 nM.

For the molecule `O=C(O)Cc1ccc2[nH]cc(CCc3ccccc3)c2c1`, the Ki in data set [5] was over 10000 nM; in [2] it was “Not Active”; in [3], “Not Active”. The EC50 in data set [1] was over 10000 nM.

For `CCc1ccc(CCOc2ccc(CC3SC(=O)NC3=O)cc2)nc1` (stereo unspecified) [PIOGLITAZONE], the Ki result in data set [2] and in data set [3] was “Not Active” throughout.

Turning to `O=C(O)Cc1ccc2[nH]c(-c3ccccc3)c(-c3ccccc3)c2c1`, the Ki was over 10000 nM in data set [5], “Not Active” in [2] and “Not Active” in data set [3]. In data set [1], this molecule displayed an EC50 of over 10000 nM.

`O=C1CSC(=O)N1Cc1ccc2[nH]c(-c3ccccc3)c(CCc3ccccc3)c2c1`: in data set [1], the EC50 is over 10000 nM. Further, the Ki result in data set [2] and in data set [3] was “Not Active” in each case.

In turn, `O=C(O)Cc1ccc2[nH]c(-c3ccccc3)c(Cc3ccccc3)c2c1` gave an EC50 in [1] of over 10000 nM. The inhibition constant (Ki) entry in [2] and in data set [3] was “Not Active” in each case. Moreover, in data set [6], the “Log Ki” value is “inactive”.

Consider `O=C(O)Cc1ccc2[nH]c(-c3ccc(F)cc3)c(CCc3ccc(F)cc3)c2c1`, for which the figures for the inhibition constant (Ki) in [5], in data set [2] and in [3] were 490 nM, “Not Active” and “Not Active”, respectively. This molecule had a 50% effective concentration (EC50) in data set [1] of 339 nM.

What is called bioavailability is the share of a dose that reaches the circulation, judged against a reference dose that is usually intravenous. The low end stands for little systemic uptake, the high end for much systemic uptake. The half-life is how long it takes for the measured level to halve. Usually IC50 stands for the concentration that gives 50% inhibition. `COc1ccc(CCc2c(-c3ccccc3)[nH]c3ccc(CC(=O)O)cc23)cc1`: the bioavailability amounted to 73% in [7] and 78% in data set [8]. This molecule showed a half-life in data set [9] of 3.8 h. In addition, the Ki in data set [5] is 47.9 nM; in data set [2], “Not Active”; in [12], 50 nM; in [3], “Not Active”. In data set [1], a half-maximal effect (EC50) was put at 43.7 nM. In data set [10], this molecule yielded a half-inhibitory concentration (IC50) of 50 nM. For the same molecule, the clearance in data set [11] was 3 mL/min/kg.

In data set [1], `CCCc1c(-c2ccccc2)[nH]c2ccc(CC(=O)O)cc12` gave an EC50 of 7080 nM. Also, the inhibitory constant (Ki) result in data set [2] and in [3] was “Not Active” in each case.

The values are drawn from ChEMBL document CHEMBL1132133, “Synthesis and biological activity of a novel series of indole-derived PPARgamma agonists” (Bioorg Med Chem Lett, 1999).
